Assay results from ChEMBL document CHEMBL3875216, “Synthesis of antimicrobial glucosamides as bacterial quorum sensing mechanism inhibitors” (Bioorg Med Chem, 2017).

Legend:
[1] = system: Escherichia coli; assay: Inhibition of LuxR-dependent quorum sensing activity in Escherichia coli MT102 harboring pJBA132 assessed as inhibition of OHHL-induced GFP expression at 2 mM measured after 8 hrs by fluorescence assay relative to control
[2] = system: Escherichia coli; assay: Inhibition of LuxR-dependent quorum sensing activity in Escherichia coli MT102 harboring pJBA132 assessed as inhibition of OHHL-induced GFP expression at 1 mM measured after 24 hrs by fluorescence assay relative to control
[3] = system: Pseudomonas aeruginosa; assay: Inhibition of LasR-dependent quorum sensing activity in Pseudomonas aeruginosa MH602 harboring GFP-fused […] LasB promoter assessed as inhibition of 3-oxo-dodecanoyl HSL-induced GFP expression at 1 mM measured after 8 hrs by fluorescence assay relative to control
[4] = system: Pseudomonas aeruginosa; assay: Growth inhibition of Pseudomonas aeruginosa PA14 at 2 mM after 24 hrs relative to control; settings: 2000 µM
[5] = system: Pseudomonas aeruginosa; assay: Growth inhibition of Pseudomonas aeruginosa MH602 at 500 uM after 24 hrs relative to control; settings: MH602, 24 h, read-out: GI
[6] = system: Pseudomonas aeruginosa; assay: Growth inhibition of Pseudomonas aeruginosa MH602 at 500 uM after 8 hrs relative to control; settings: MH602, 8 h, read-out: GI
[7] = system: Pseudomonas aeruginosa; assay: Inhibition of LasR-dependent quorum sensing activity in Pseudomonas aeruginosa MH602 harboring GFP-fused […] LasB promoter assessed as inhibition of 3-oxo-dodecanoyl HSL-induced GFP expression at 2 mM measured after 8 hrs by fluorescence assay relative to control
[8] = system: Pseudomonas aeruginosa; assay: Growth inhibition of Pseudomonas aeruginosa MH602 at 2 mM after 8 hrs relative to control; settings: MH602, 8 h, read-out: GI
[9] = system: Escherichia coli; assay: Inhibition of LuxR-dependent quorum sensing activity in Escherichia coli MT102 harboring pJBA132 assessed as inhibition of OHHL-induced GFP expression at 1 mM measured after 8 hrs by fluorescence assay relative to control
[10] = system: Pseudomonas aeruginosa; assay: Growth inhibition of Pseudomonas aeruginosa MH602 at 1 mM after 8 hrs relative to control; settings: MH602, 8 h, read-out: GI
[11] = system: Escherichia coli; assay: Growth inhibition of Escherichia coli MT102 at 2 mM after 8 hrs relative to control; settings: MT102, 8 h, read-out: GI
[12] = system: Escherichia coli; assay: Growth inhibition of Escherichia coli MT102 at 500 uM after 24 hrs relative to control; settings: MT102, 24 h, read-out: GI
[13] = system: Escherichia coli; assay: Growth inhibition of Escherichia coli MT102 at 1 mM after 8 hrs relative to control; settings: MT102, 8 h, read-out: GI
[14] = system: Pseudomonas aeruginosa PA14; assay: Inhibition of quorum sensing-regulated biofilm formation in Pseudomonas aeruginosa PA14 at 2 mM after overnight incubation by crystal violet staining based assay relative to control
[15] = system: Escherichia coli; assay: Growth inhibition of Escherichia coli MT102 at 1 mM after 24 hrs relative to control; settings: MT102, 24 h, read-out: GI
[16] = system: Pseudomonas aeruginosa; assay: Inhibition of LasR-dependent quorum sensing activity in Pseudomonas aeruginosa MH602 harboring GFP-fused […] LasB promoter assessed as inhibition of 3-oxo-dodecanoyl HSL-induced GFP expression at 2 mM measured after 24 hrs by fluorescence assay relative to control
[17] = system: Escherichia coli; assay: Growth inhibition of Escherichia coli MT102 at 2 mM after 24 hrs relative to control; settings: MT102, 24 h, read-out: GI
[18] = system: Pseudomonas aeruginosa; assay: Inhibition of LasR-dependent quorum sensing activity in Pseudomonas aeruginosa MH602 harboring GFP-fused […] LasB promoter assessed as inhibition of 3-oxo-dodecanoyl HSL-induced GFP expression at 500 uM measured after 8 hrs by fluorescence assay relative to control
[19] = system: Escherichia coli; assay: Inhibition of LuxR-dependent quorum sensing activity in Escherichia coli MT102 harboring pJBA132 assessed as inhibition of OHHL-induced GFP expression at 500 uM measured after 24 hrs by fluorescence assay relative to control
[20] = system: Pseudomonas aeruginosa; assay: Growth inhibition of Pseudomonas aeruginosa MH602 at 2 mM after 24 hrs relative to control; settings: MH602, 24 h, read-out: GI
[21] = system: Escherichia coli; assay: Growth inhibition of Escherichia coli MT102 at 500 uM after 8 hrs relative to control; settings: MT102, 8 h, read-out: GI
[22] = system: Escherichia coli; assay: Inhibition of LuxR-dependent quorum sensing activity in Escherichia coli MT102 harboring pJBA132 assessed as inhibition of OHHL-induced GFP expression at 500 uM measured after 8 hrs by fluorescence assay relative to control
[23] = system: Pseudomonas aeruginosa; assay: Growth inhibition of Pseudomonas aeruginosa MH602 at 1 mM after 24 hrs relative to control; settings: MH602, 24 h, read-out: GI
[24] = system: Escherichia coli; assay: Inhibition of LuxR-dependent quorum sensing activity in Escherichia coli MT102 harboring pJBA132 assessed as inhibition of OHHL-induced GFP expression at 2 mM measured after 24 hrs by fluorescence assay relative to control
[25] = system: Pseudomonas aeruginosa; assay: Inhibition of LasR-dependent quorum sensing activity in Pseudomonas aeruginosa MH602 harboring GFP-fused […] LasB promoter assessed as inhibition of 3-oxo-dodecanoyl HSL-induced GFP expression at 500 uM measured after 24 hrs by fluorescence assay relative to control
[26] = system: Pseudomonas aeruginosa; assay: Inhibition of LasR-dependent quorum sensing activity in Pseudomonas aeruginosa MH602 harboring GFP-fused […] LasB promoter assessed as inhibition of 3-oxo-dodecanoyl HSL-induced GFP expression at 1 mM measured after 24 hrs by fluorescence assay relative to control
[27] = system: Pseudomonas aeruginosa PA14; assay: Inhibition of quorum sensing-regulated pyocyanin production in Pseudomonas aeruginosa PA14 at 2 mM after 24 hrs relative to control

| Compound | inhibition [1] [%] | inhibition [2] [%] | inhibition [3] [%] | growth inhibition (GI) [4] | inhibition at 500 µM [5] [%] | inhibition at 500 µM [6] [%] | inhibition [7] [%] | inhibition at 2000 µM [8] [%] | inhibition at 1000 µM [10] [%] | inhibition at 2000 µM [11] [%] | inhibition at 500 µM [12] [%] | inhibition at 1000 µM [13] [%] | inhibition at 1000 µM [15] [%] | inhibition at 2000 µM [17] [%] | inhibition [18] [%] | inhibition at 2000 µM [20] [%] | inhibition at 500 µM [21] [%] | inhibition [22] [%] | inhibition at 1000 µM [23] [%] | inhibition [24] [%] | also measured |
| --- | --- | --- | --- | --- | --- | --- | --- | --- | --- | --- | --- | --- | --- | --- | --- | --- | --- | --- | --- | --- | --- |
| COc1ccc(CC(=O)N[C@@H]2[C@@H](O)[C@H](O)[C@@H](CO)O[C@H]2O)cc1 | 3.5 | 20.2 | 7.5 | Non-Toxic | 2.9 | 0 | 0.8 | 0 | 0 | 0 | 0 | 0 | 0 | 3 | 3.2 | 0 | 0 | 6.7 | 3.3 | 2.6 | inhibition [9]: 10.1%; inhibition [14]: 16.6%; inhibition [16]: 3%; inhibition [19]: 16% |
| CC(=O)N[C@@H]1[C@@H](O)[C@H](O)[C@@H](CO)O[C@H]1O [N-ACETYLGLUCOSAMINE] | 86.5 | 69.3 | 29.6 | Non-Toxic | 2.7 | 0 | 81.3 | 12.5 | 0 | 0 | 14.7 | 7.8 | 0 | 10.3 | 16.3 | 0 | 6.1 | 36.2 | 0 | 96.1 | inhibition [9]: 85%; inhibition [25]: 13.6%; inhibition [19]: 18.8% |
| COc1ccc(CC(=O)N[C@H]2[C@H](OC(C)=O)O[C@H](COC(C)=O)[C@@H](OC(C)=O)[C@@H]2OC(C)=O)cc1 |  | 28.7 | 9.6 | Non-Toxic | 3.9 | 0 | 0.9 | 0 | 0 | 0 | 4.5 | 0 | 0 | 0 | 4.2 | 0 | 0 | 6.6 | 0 | 25.4 | inhibition [26]: 19.4%; inhibition [25]: 17.8%; inhibition [14]: 5.6%; inhibition [16]: 18.6%; inhibition [27]: 0.4% |
| O=C(CCCc1ccccc1)N[C@@H]1[C@@H](O)[C@H](O)[C@@H](CO)O[C@H]1O | 76.2 | 46.7 | 9.9 | Non-Toxic | 0 | 2.6 | 38.9 | 15.8 | 2.1 | 21.2 | 7.7 | 0 | 8.8 | 2.7 | 5.6 | 0 | 17.9 | 8.7 | 2 | 85 | inhibition [9]: 43.4%; inhibition [14]: 4.8%; inhibition [16]: 17.4%; inhibition [19]: 4.3% |
